Experimental data from ChEMBL document CHEMBL1132601, “Design, synthesis, and structure-activity relationships of acetylene-based histamine H3 receptor antagonists” (J Med Chem, 1999).

molecular target: Histamine H3 receptor (Rattus norvegicus, UniProt Q9QYN8); experiment: Binding affinity at histamine H3 receptor in rat cortical membranes by [3H]Nalpha-methylhistamine displacement.; format: cell membranes
Sequence (Q9QYN8 whole entry): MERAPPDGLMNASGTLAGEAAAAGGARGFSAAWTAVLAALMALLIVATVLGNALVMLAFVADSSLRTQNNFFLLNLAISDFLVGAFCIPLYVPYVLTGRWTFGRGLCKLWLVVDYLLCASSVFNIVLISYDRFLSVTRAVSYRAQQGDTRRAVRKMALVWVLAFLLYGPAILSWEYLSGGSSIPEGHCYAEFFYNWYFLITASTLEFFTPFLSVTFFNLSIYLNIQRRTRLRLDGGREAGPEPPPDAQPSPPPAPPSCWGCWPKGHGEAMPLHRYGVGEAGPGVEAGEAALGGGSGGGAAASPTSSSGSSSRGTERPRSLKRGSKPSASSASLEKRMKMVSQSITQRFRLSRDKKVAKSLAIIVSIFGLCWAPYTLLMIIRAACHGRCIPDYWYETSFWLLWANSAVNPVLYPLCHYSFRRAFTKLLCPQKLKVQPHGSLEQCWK

Row | SMILES | Ki [nM]
1 | CCCC#CC1CC1c1c[nH]cn1 (stereo not drawn) | 5.1
2 | C(#CCCC1CCCC1)CCc1c[nH]cn1 | 0.9
3 | CC(C)(C)CCC#C[C@@H]1C[C@H]1c1c[nH]cn1 [CIPRALISANT] | 0.12
